The results in this text go back to paper PMC9848351, “Discovery of new pyridine-quinoline hybrids as competitive and non-competitive PIM-1 kinase inhibitors with apoptosis induction and caspase 3/7 activation capabilities” (Journal of Enzyme Inhibition and Medicinal Chemistry, 2023).

The test system of series [1] is normal human lung fibroblast Wi-38 cell line. Kind of series: MTT cytotoxicity on normal cells. As to conditions: for EC50 / IC50: Homo sapiens; for EC50 / Wi-38 EC100: Wi-38, 72 h, MTT, mean ± SEM; for EC50: 50% cell viability; for IC50: Wi-38, MTT, read-out: IC50 on human lung fibroblasts (Wi-38); for Wi-38 EC100: safe dose, 100% cell viability. It is filed as cell-based. A digest of the protocol:
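Wi-38 fibroblasts in DMEM with 10% FBS were seeded at 5x10^3 cells/well, left 24 h to attach, then exposed to serial compound concentrations for 72 h at 37 °C, 5% CO2. MTT was added for 3 h, formazan dissolved in DMSO and absorbance read at 570 nm. IC50 and EC100 (safe dose) were estimated from the concentration series.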

The subject of series [2] is liver cancer cell line (HepG-2). The experiment in a line: MTT anticancer activity, HepG-2. It is filed as cell-based, human. Conditions: for IC50: Homo sapiens, HepG2, HepG-2, 72 h, MTT, mean ± SEM; for activity against HepG-2 compared to the reference: fold versus doxorubicin IC50. A digest of the protocol:
(§1)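 Cells seeded at 5x10^3/well (Caco-2 in DMEM, others in RPMI-1640, 10% FBS) and exposed to serial compound concentrations for 72 h at 37 °C, 5% CO2, starting 24 h after seeding. MTT (3 h, 37 °C) read at 570 nm after DMSO solubilisation; IC50 calculated from viability.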

The subject of series [3] is prostate cancer cell line (PC-3). The experiment in a line: MTT anticancer activity, PC-3. It is filed as cell-based, human. As to conditions: Homo sapiens, 72 h, PC-3, 72 h, mean ± SEM. An outline of the steps:
as §1

Series [4] deals with myeloid leukaemia cell line (NFS-60). The experiment in a line: MTT anticancer activity, NFS-60. Type of series: cell-based. Conditions: for IC50: NFS-60, 72 h, MTT, mean ± SEM; for activity against NFS-60 compared to the reference: fold versus doxorubicin IC50. A digest of the protocol: as §1
Series [5] concerns Caco-2. The experiment in a line: Flow cytometric annexin V/PI analysis of apoptosis, Caco-2. Type of series: cell-based. As to conditions: IC50 of compound, 72 h, mean ± SEM. Here is the method: (§2) The apoptosis-dependent […] was determined by quantification of annexin-stained apoptotic cells using the FITC signal detector (FL1) against the phycoerythrin emission signal detector (FL2) (Supplementary Page S55). […]
MTT method was used for assaying cell viability 25. Twenty microliters of 5 mg/ml MTT (Sigma, USA) was added to each well and the plate was incubated at 37 °C for 3 h. Then MTT solution was removed, 100 µl DMSO was used and the absorbance of each well was measured with a microplate reader ( BMG LabTech, […]
Germany) at 570 nm. […]
(§3) Graphpad Instat software.
(§4) Determination of the anticancer activity
Anticancer effect of the above-mentioned compounds was evaluated using four human […]
cancer cell lines. […]
All cancer cells (5x10^3 cells/well) were seeded in sterile
96-well plates. After 24h, serial concentrations of the tested compounds and Dox were incubated with four cancer cell lines for 72 h at 37 °C in 5% CO2 incubator. MTT method was done as described above. The Graphpad Instat software was used for calculating the half maximal inhibitory concentration (IC50) values. […]
(§5) Flow cytometric analysis of apoptosis
(§6) Caco-2, PC-3 and NFS-60 cell lines. After trypsinization, the untreated and treated cells were incubated with annexin V/PI for 15 min. Then cells were fixed and incubated with streptavidin-fluorescein (5 µg/mL) for 15 min. The apoptosis-dependent anticancer effect was determined by quantification of annexin-stained apoptotic cells using the FITC signal detector (FL1) against the phycoerythrin emission signal detector (FL2). […]
(Flow cytometry measures light scatter and fluorescence of single cells or particles in a stream.)

Series [6] deals with PC-3. The experiment in a line: Flow cytometric annexin V/PI analysis of apoptosis, PC-3. It is filed as cell-based, human. Conditions: IC50 of compound, 72 h, mean ± SEM. As to the method: as §2
(§7) MTT method was used for assaying cell viability 25. Twenty microliters of 5 mg/ml MTT (Sigma, USA) was added to each well and the plate was incubated at […]
(§8) 37 °C for 3 h. […]
as §3, §4
(§9) Anticancer effect of the above-mentioned compounds was evaluated using four human cancer cell lines. Colon cancer cells (Caco-2) were maintained in DMEM (Lonza, USA) containing 10% FBS while myeloid leukemia cell line (NFS-60), liver cancer cell line (HepG-2) and prostate cancer cell line (PC-3) were cultured in RPMI-1640 (Lonza, USA) supplemented with 10% FBS. All cancer cells (5x10^3 cells/well) were seeded in sterile 96-well plates. After 24h, serial concentrations of the tested compounds and Dox were incubated with four cancer cell lines for 72 h at 37 °C in 5% CO2 incubator. MTT method was done as described above. The Graphpad Instat software was used for calculating the half maximal inhibitory concentration (IC50) values. […]
as §5, §6

The subject of series [7] is NFS-60. Kind of series: Flow cytometric annexin V/PI analysis of apoptosis, NFS-60. As to conditions: IC50 of compound, 72 h, mean ± SEM. It is filed as cell-based, human. As to the method:
as §2, §7, §8, §3, §4, §9, §5, §6

`N#Cc1c(-c2cc3cc(Cl)ccc3nc2N2CCOCC2)cc(-c2cccc(O)c2)[nH]c1=O` [5b, 4-(6-Chloro-2-morpholin-4-yl-quinolin-3-yl)-6-(3-hydroxyphenyl)-2-oxo-1,2-dihydropyridine-3-carbonitrile]: the EC50 in series [1] amounted to 0.171 ± 0.002 µM. The IC50 in series [1] is over 0.099 µM; in series [2] it was 0.00528 ± 0.0001 µM; in series [3], 0.0261 ± 0.004 µM; in series [4], 0.00932 ± 0.004 µM. Moreover, the “Wi-38 EC100” value in series [1] was 0.048 ± 0.0001 µM. Further, the “total percentage of the apoptotic cell population, Caco-2” value (“total percentage … Caco-2” for short) in series [5] was determined as 44.045 ± 0.185%. Further, the “total percentage of the apoptotic cell population, PC-3” value (“total percentage … PC-3” below) in series [6] turned out to be 50.7 ± 0.58%. In addition, the “total percentage of the apoptotic cell population, NFS-60” value (“total percentage … NFS-60” for short) in series [7] amounted to 54.2 ± 0.47%.

Regarding `COc1ccc2nc(N3CCOCC3)c(-c3cc(-c4cccc(O)c4)[nH]c(=O)c3C#N)cc2c1` [5c, 6-(3-Hydroxyphenyl)-4-(6-methoxy-2-morpholin-4-yl-quinolin-3-yl)-2-oxo-1,2-dihydropyridine-3-carbonitrile], the EC50 in series [1] was 0.717 ± 0.002 µM. The IC50 in series [1] was over 0.099 µM; in series [2] it was 0.0076 ± 0.0001 µM; in series [3], 0.0272 ± 0.003 µM; in series [4], 0.0181 ± 0.001 µM. The “Wi-38 EC100” value in series [1] amounted to 0.361 ± 0.014 µM. For the same molecule, the “total percentage … Caco-2” value in series [5] is 33.89 ± 0.175%. Further, the “total percentage … PC-3” value in series [6] was found to be 47.26 ± 0.92%. In series [7], the “total percentage … NFS-60” value is on record as 51.53 ± 0.09%.

Regarding `N#Cc1c(-c2cc3ccccc3[nH]c2=O)cc(-c2cccc(O)c2)[nH]c1=O` [13a, 6-(3-Hydroxyphenyl)-2-oxo-4-(2-oxo-1,2-dihydroquinolin-3-yl)-1,2-dihydropyridine-3-carbonitrile], in series [1], the 50% effective concentration (EC50) is 0.0255 ± 0.004 µM and the “Wi-38 EC100” value was found to be 0.0145 ± 0.0001 µM. Further, in series [2], the IC50 was determined as 0.00238 µM and the “activity against HepG-2 compared to the reference” value was “twenty-one-fold more active”. The molecule further came in with a 50% inhibitory concentration (IC50) in series [3] of 0.02 ± 0.003 µM. In series [4], half-maximal inhibition (IC50) required 0.009 µM and the “activity against NFS-60 compared to the reference” value was “three-fold”. Further, the “total percentage … Caco-2” value in series [5] was 58.28 ± 0.26%. Besides, the “total percentage … PC-3” value in series [6] is reported as 59.71 ± 0.82%. In addition, in series [7], the “total percentage … NFS-60” value is listed as 59.23 ± 0.04%.

Turning to `COc1ccc2[nH]c(=O)c(-c3cc(-c4cccc(O)c4)[nH]c(=O)c3C#N)cc2c1` [13c, 6-(3-Hydroxyphenyl)-4-(6-methoxy-2-oxo-1,2-dihydroquinolin-3-yl)-2-oxo-1,2-dihydropyridine-3-carbonitrile], in series [1], a half-maximal response (EC50) required 0.0348 ± 0.003 µM and the “Wi-38 EC100” value is 0.0242 ± 0.001 µM. For the same molecule, in series [2], it took 0.00377 ± 0.0001 µM to reach half-maximal inhibition (IC50) and the “activity against HepG-2 compared to the reference” value is recorded as “thirteen-fold high”. Moreover, the IC50 in series [3] is 0.0225 ± 0.002 µM. In series [4], half-maximal inhibition (IC50) required 0.0088 ± 0.0001 µM and the “activity against NFS-60 compared to the reference” value was “three-fold high”. Moreover, in series [5], the “total percentage … Caco-2” value is recorded as 51.17 ± 0.33%. The “total percentage … PC-3” value in series [6] stood at 57.91 ± 0.34%. In series [7], the “total percentage … NFS-60” value is 58.83 ± 0.36%.

`N#Cc1c(-c2cc3ccccc3[nH]c2=O)cc(-c2cccc(O)c2)nc1S` [14a, 6-(3-Hydroxyphenyl)-2-mercapto-4-(2-oxo-1,2-dihydroquinolin-3-yl)pyridine-3-carbonitrile] came in with a half-maximal effective concentration (EC50) in series [1] of 0.299 ± 0.004 µM. For the same molecule, in series [1], the “Wi-38 EC100” value amounted to 0.134 ± 0.003 µM. The 50% inhibitory concentration (IC50) in series [2] is 0.0127 µM; in series [3] it was 0.0168 ± 0.0001 µM; in series [4], 0.0232 µM. In series [5], the “total percentage … Caco-2” value was 42.17 ± 0.82%. For the same molecule, the “total percentage … PC-3” value in series [6] worked out at 56.545 ± 0.98%. For the same molecule, the “total percentage … NFS-60” value in series [7] was 42.005 ± 0.32%.

A word on the EC50: it is the midpoint of the concentration-response curve. The IC50 is the point on the concentration scale where inhibition reaches its midpoint.
